{"source": "patent US20110151018A1", "about": "“METHODS OF INSECT CONTROL” (BRANDEIS UNIVERSITY, priority 2008, published 2011)", "key": {"D. melanogaster flies [1]": {"test_system": "D. melanogaster flies", "assay": "Proboscis extension response (PER) assay, solution contact with labellum", "assay_type": "in vivo, Drosophila melanogaster", "from_the_text": "Proboscis extension response (PER) assay: As reactive electrophiles are commonly encountered as defensive agents present in food sources, we also examined AITC sensing in the context of fly feeding. Flies aged two to seven days were starved on wet Kim wipes overnight, knocked out on ice, and glued (Elmer's glue) by their wings on a glass slide. Flies recovered in a humidified chamber at least for 2 hrs at room temperature prior to assay. At the beginning of PER assay, the fly was satiated with water. […] When the proboscis was extended and maintained the contact for 2-3 sec with the presented food, it was scored as 1. If the contact is only brief or proboscis stuttered on the tastant, 0.5 was given as the score. When the proboscis never made contact within 5 sec, 0 was given. Each fly was offered five times per experiment, and between offerings water was given to satiation. As AITC was always accepted on first offering, frequency of PER was calculated as a fraction obtained from the […] offerings (sum of four scores divided by 4). For leg only PER assays, the procedures are same as above except that the flies tested were not allowed to contact with the offered food with proboscis, with either 12% sucrose or a mixture of 2 mM AITC/12% sucrose was offered ten times."}, "dTRPA1-2C": {"test_system": "dTRPA1-2C", "assay": "AITC-evoked currents of dTRPA1-2C mutant channel in oocytes", "assay_type": "cell-based, Drosophila melanogaster", "settings": "0.1 and 0.5 mM AITC normalized to 1.0 mM, -60 mV", "method": "(§1) Two-electrode voltage clamping on Xenopus laevis oocytes: Agonist-evoked dTRPA1 currents were recorded as previously described (52), with the following modifications. Agonists of interest were added to the oocyte perfusion buffer (96 mM NaCl, 1 mM MgCl2, 4 mM KCl, and 5 mM HEPES, pH 7.6). Voltage was initially held at −60 mV, and each 300-ms voltage ramp (−60 mV to 60 mV) per sec was applied to dTRPA1- or AgTRPA1-expressing oocytes during perfusion of agonist-containing buffer. Typical resting membrane potentials of oocytes used were between −25 and −60 mV.\nSubstitutions of cysteine/lysine residues in dTrpA1 were made by swapping a region of wild type cDNA sequence including codons of cysteine or lysine with mutated cassettes. A pair of mutually complemetary oligonucleotide primers with a desired mutation were prepared, and each of them was paired with upstream or downstream primers for the first two PCR reactions. The resulting two PCR fragments overlap in the mutant primer-annealing region that contains the replaced codons, and served as template for the second PCR reaction amplified only with the upstream and down stream primers. The upstream and down stream primers were designed to be just outside of specific restriction endonuclease target sites that were used to clone the second PCR products back in the wild type dTrpA1 cDNA background sequence. […]"}, "D. melanogaster flies [2]": {"test_system": "D. melanogaster flies", "assay": "Leg only PER assay", "assay_type": "in vivo, Drosophila melanogaster", "settings": "2 mM AITC/12% sucrose", "from_the_text": "Proboscis extension response (PER) assay: As reactive electrophiles are commonly encountered as defensive agents present in food sources, we also examined AITC sensing in the context of fly feeding. Flies aged two to seven days were starved on wet Kim wipes overnight, knocked out on ice, and glued (Elmer's glue) by their wings on a glass slide. Flies recovered in a humidified chamber at least for 2 hrs at room temperature prior to assay. At the beginning of PER assay, the fly was satiated with water. Next, solution containing tastants was presented to the fly as a liquid ball on a pipette tip, touching the forelegs only. When the proboscis was extended and maintained the contact for 2-3 sec with the presented food, it was scored as 1. If the contact is only brief or proboscis stuttered on the tastant, 0.5 was given as the score. When the proboscis never made contact within 5 sec, 0 was given. Each fly was offered five times per experiment, and between offerings water was given to satiation. As AITC was always accepted on first offering, frequency of PER was calculated as a fraction obtained from the […] offerings (sum of four scores divided by 4). […]"}, "flies": {"test_system": "flies", "assay": "Ingestion of AITC-laden food over a 60 minute period", "assay_type": "in vivo, Drosophila", "settings": "well before the end of the 60 minute assay"}, "dTRPA1 [3]": {"target": "T1, dTRPA1 (Drosophila melanogaster, UniProt Q7Z020)", "T1 sequence (Q7Z020 1-1197)": "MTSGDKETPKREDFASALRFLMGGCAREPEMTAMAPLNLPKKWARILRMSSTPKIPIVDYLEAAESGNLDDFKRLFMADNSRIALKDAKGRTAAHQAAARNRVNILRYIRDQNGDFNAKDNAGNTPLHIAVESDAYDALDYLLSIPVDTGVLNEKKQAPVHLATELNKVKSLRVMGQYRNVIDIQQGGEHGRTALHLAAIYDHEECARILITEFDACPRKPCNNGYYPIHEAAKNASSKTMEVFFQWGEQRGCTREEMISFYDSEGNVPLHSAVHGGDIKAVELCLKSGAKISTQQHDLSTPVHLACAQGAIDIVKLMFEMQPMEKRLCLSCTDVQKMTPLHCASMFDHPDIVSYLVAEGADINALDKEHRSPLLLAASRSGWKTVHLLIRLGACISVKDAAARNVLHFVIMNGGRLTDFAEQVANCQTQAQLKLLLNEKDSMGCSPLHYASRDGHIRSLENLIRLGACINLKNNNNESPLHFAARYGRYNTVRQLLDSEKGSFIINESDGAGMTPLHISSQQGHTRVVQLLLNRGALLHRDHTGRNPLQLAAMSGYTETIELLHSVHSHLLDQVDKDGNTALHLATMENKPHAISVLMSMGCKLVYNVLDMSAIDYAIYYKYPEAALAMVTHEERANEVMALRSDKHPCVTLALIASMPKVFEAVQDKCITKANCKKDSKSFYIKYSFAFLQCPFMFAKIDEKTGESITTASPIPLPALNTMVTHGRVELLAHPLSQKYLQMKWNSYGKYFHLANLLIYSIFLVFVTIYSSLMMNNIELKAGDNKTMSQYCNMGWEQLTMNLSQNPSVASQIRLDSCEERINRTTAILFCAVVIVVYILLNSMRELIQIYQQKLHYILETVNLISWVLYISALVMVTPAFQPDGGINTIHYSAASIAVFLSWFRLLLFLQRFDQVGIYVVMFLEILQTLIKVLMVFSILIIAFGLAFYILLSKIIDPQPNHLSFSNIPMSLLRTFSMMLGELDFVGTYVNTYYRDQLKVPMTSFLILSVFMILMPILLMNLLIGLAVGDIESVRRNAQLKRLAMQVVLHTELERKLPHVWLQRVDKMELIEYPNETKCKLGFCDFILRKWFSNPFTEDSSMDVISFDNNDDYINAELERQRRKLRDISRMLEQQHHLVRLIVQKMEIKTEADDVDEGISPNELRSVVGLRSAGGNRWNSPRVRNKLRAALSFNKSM", "assay": "Agonist-evoked dTRPA1 currents, two-electrode voltage clamping on Xenopus laevis oocytes", "assay_type": "cell-based", "settings": "for activation of wild-type dTRPA1 channel currents: 100 μM, applied 60-80 sec, currents at -60 and +60 mV", "method": "as §1"}, "Drosophila melanogaster": {"test_system": "Drosophila melanogaster", "settings": "cited from earlier work"}, "D. melanogaster adults": {"test_system": "D. melanogaster adults", "assay": "Vapor avoidance assay (choice between AITC tube and DMSO tube)", "assay_type": "in vivo, Drosophila melanogaster", "settings": "dTrpA1 loss-of-function mutants, P<0.0001", "method": "Vapor avoidance assay: One to three day-old flies were collected, knocked out by CO2, and kept on a fresh food at least 24 hrs before use. Choice apparatus was as previously described (3). ˜200 mM AITC was prepared daily by diluting 1 part of 99% AITC (Sigma) in 49 parts of DMSO. 1 microliter of diluted AITC was placed on the tip of 16-gauge needle (plugged by bending), inserted in bottom of a capped 14-ml polypropylene tube and allowed to diffuse for 2 min prior to use. 1 microliter of DMSO alone was placed on a needle tip inserted into the other 14-ml tube. During diffusion period, flies were transferred to the apparatus held within the fly elevator. After diffusion period, AITC tube was uncapped and inserted one opening of the choice chamber, other opening contained vehicle only tube. […] AITC and vehicle only sides were alternated to offset any bias caused by possible asymmetric condition. Avoidance index was calculated by subtracting the fraction of flies in AITC tube from fraction in vehicle alone tube."}, "agTRPA1 [4]": {"test_system": "agTRPA1", "assay": "Agonist-evoked agTRPA1 currents, two-electrode voltage clamping on Xenopus laevis oocytes", "assay_type": "cell-based, Anopheles gambiae", "settings": "100 μM", "method": "as §1"}, "dTRPA1 [5]": {"target": "T1, dTRPA1", "assay": "Warmth-evoked currents in dTRPA1-expressing Xenopus laevis oocytes (two electrode voltage clamp)", "assay_type": "cell-based", "settings": "50 micromolar Ruthenium Red, -60 mV", "method": "(§2) Oocyte-positive Xenopus laevis females were obtained from Nasco (Ft. Atkinson, Wis.), and maintained at ˜19° C. with 12 h/12 h dark/light cycles. Ovaries were surgically isolated, and treated with 1.5 mg/ml of collagenase type II (Worthington, Lakewood, N.J.) for 90 min, and individual oocytes were defolliculated with a pair of forceps. cRNA was transcribed by mMessage mMachine T3 kit (Ambion, Austin, Tex.) from each cDNA construct, and 50 nl aliquot per oocyte was injected using an automatic Drummond microinjector. (agTRPA1 sequence deposited as Genbank #108 1610.) Membrane potential was maintained at −60 mV by two electrode voltage clamping (TEVC) during warm-activated current recording. Resistance of pulled glass capillary electrodes filled with 3 M KCl was between 0.5 and 1.5 MΩ. Typical resting membrane potentials of oocytes used for current recording were between −25 and -60 mV. Current was recorded at 2 kHz and filtered to 1 kHz with the output filter of the amplifier (OC-725B, Warner instruments, Hamden, Conn.). […] Each voltage step lasted 100 ms following 10 ms holding at −60 mV, and the recorded current in the last 40 ms was averaged to determine the current amplitude at a given voltage."}, "agTRPA1 [6]": {"test_system": "agTRPA1", "assay": "Warmth-evoked currents in agTRPA1-expressing Xenopus laevis oocytes (two electrode voltage clamp)", "assay_type": "cell-based, Anopheles gambiae", "settings": "50 micromolar Ruthenium Red, -60 mV", "method": "as §2"}, "[7]": {"test_system": "motor neurons expressing dTRPA1", "assay": "Larval neuromuscular junction electrophysiology (EJPs in muscle 6)", "assay_type": "cell-based, Drosophila melanogaster", "from_the_text": "Larval neuromuscular junction electrophysiology: dTRPA1 was expressed in larval motor neurons using OK371-GAL4, a driver specific for glutamatergic neurons (Aberle et al., 2006) as described (61). In all preparations, the ventral ganglion was dissected away, leaving only motor axons and terminals. Larval muscle 6 (m6) was impaled with a sharp electrode (10-20 MO) containing 3M KCl. Resting membrane potentials were typically between −40 and −50 mV. Saline was perfused over the preparation, then increasing concentrations of cinnemaldehyde applied using a custom built gravity perfusion system. EJP frequency was measured-30 sec after application of each concentration using analysis scripts in Spike 2 (Cambridge Electronic Design, Cambridge, UK)."}}}
{"smiles": "Cn1c(=O)c2c(ncn2C)n(C)c1=O", "note": "[caffeine]", "values": [{"measurement": "inhibition of the PER, dTrpA1 mutants versus controls", "setting": "D. melanogaster flies [1]; caffeine-mediated", "result": "indistinguishable"}]}
{"smiles": "C=CCN=C=S", "note": "[AITC, allyl isothiocyanate]", "values": [{"measurement": "AITC sensitivity of dTRPA1-2C compared to wild type dTRPA1", "setting": "dTRPA1-2C", "result": "significantly decreased AITC sensitivity"}, {"measurement": "effect on PER elicited by contact of 12% sucrose solution with the legs", "setting": "D. melanogaster flies [2]", "result": "no detectable effects"}, {"measurement": "incapacitation of flies on exposure", "setting": "flies", "result": "incapacitated all flies"}, {"measurement": "activation of wild-type dTRPA1 channel currents", "setting": "dTRPA1 [3]", "result": "robustly activated"}, {"measurement": "toxicity and mutagenicity to the fruit fly", "setting": "Drosophila melanogaster", "result": "toxic and mutagenic"}, {"measurement": "AITC vapor avoidance compared to control", "setting": "D. melanogaster adults", "result": "significantly reduced AITC avoidance"}, {"measurement": "PER upon the first offering", "setting": "D. melanogaster flies [1]; 12% sucrose containing 2 mM AITC, labellum", "result": "All flies also exhibited a PER"}, {"measurement": "PER triggered by the four subsequent offerings", "setting": "D. melanogaster flies [1]; control flies, 12% sucrose containing 2 mM AITC, labellum (sucrose alone 95%)", "result": 33, "unit": "%"}, {"measurement": "PER in response to multiple offerings", "setting": "D. melanogaster flies [1]; dTrpA1 mutants, sucrose containing AITC", "result": "no reduction in PER"}, {"measurement": "activation of agTRPA1 channel currents", "setting": "agTRPA1 [4]", "result": "robust responses"}]}
{"smiles": "N.N.N.N.N.N.N.N.N.N.N.N.N.N.[Cl-].[Cl-].[Cl-].[Cl-].[Cl-].[Cl-].[O-2].[O-2].[Ru+3].[Ru+3].[Ru+4]", "note": "[Ruthenium Red, ruthenium red]", "values": [{"measurement": "inhibition of warmth-activated dTRPA1 currents", "setting": "dTRPA1 [5]", "result": "inhibited"}, {"measurement": "inhibition of electrophile-evoked dTRPA1 currents", "setting": "dTRPA1 [3]; 100 μM RR", "result": "inhibited"}, {"measurement": "inhibition of warmth-activated agTRPA1 currents", "setting": "agTRPA1 [6]", "result": "inhibited"}]}
{"smiles": "C=CC=O", "note": "[acrolein]", "values": [{"measurement": "activation of wild-type dTRPA1 channel currents", "setting": "dTRPA1 [3]", "result": "robustly activated"}, {"measurement": "toxicity and mutagenicity to the fruit fly", "setting": "Drosophila melanogaster", "result": "toxic and mutagenic"}]}
{"smiles": "O=CC=Cc1ccccc1", "note": "[cinnamaldehyde]", "values": [{"measurement": "activation of wild-type dTRPA1 channel currents", "setting": "dTRPA1 [3]", "result": "robustly activated"}, {"measurement": "response of control motor neurons", "setting": "[7]; genetic controls without dTRPA1", "result": "unresponsive"}, {"measurement": "activation of motor neurons expressing dTRPA1 (EJPs in target muscles)", "setting": "[7]; ok371-Gal4 driven dTRPA1, 3rd instar larvae", "result": "robustly activated"}]}
